Data: PubChem BioAssay AID1963874 (Molecular Pharmacology Branch, DTP, NCI, 2024)
pIC50: −log10 of the molar value.

Tested on: 253994-281-T-J1-PDC KRAS-mutant spheroids with HUVEC/MSC, viability
Assay: Anticancer human tumor 253994-281-T-J1-PDC patient-derived colorectal carcinoma cell line growth inhibition [KRAS2]
Conditions: for pIC50: curve of first compound; for viability, T/C: stronger effect = lower value
Outline: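 Combination screen of spheroid viability in tumor-cell co-cultures with endothelial (HUVEC) and mesenchymal stem cell stroma. Each agent was tested in half-log dilutions, topping at clinical Cmax or at 10 microM without a known Cmax.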

[1] = second compound 0.0316 µM, first compound 0.0316 µM
[2] = second compound 0.0316 µM, first compound 0.1 µM
[3] = second compound 0.0316 µM, first compound 0.316 µM
[4] = second compound 0.0316 µM, first compound 1 µM
[5] = second compound 0.0316 µM, first compound 3.16 µM
[6] = second compound 0.0316 µM, first compound 10 µM
[7] = second compound 0.1 µM, first compound 0.0316 µM
[8] = second compound 0.1 µM, first compound 0.1 µM
[9] = second compound 0.1 µM, first compound 0.316 µM
[10] = second compound 0.1 µM, first compound 1 µM
[11] = second compound 0.1 µM, first compound 3.16 µM
[12] = second compound 0.1 µM, first compound 10 µM
[13] = second compound 0.316 µM, first compound 0.0316 µM
[14] = second compound 0.316 µM, first compound 0.1 µM
[15] = second compound 0.316 µM, first compound 0.316 µM
[16] = second compound 0.316 µM, first compound 1 µM
[17] = second compound 0.316 µM, first compound 3.16 µM
[18] = second compound 0.316 µM, first compound 10 µM
[19] = second compound 1 µM, first compound 0.0316 µM
[20] = second compound 1 µM, first compound 0.1 µM
[21] = second compound 1 µM, first compound 0.316 µM
[22] = second compound 1 µM, first compound 1 µM
[23] = second compound 1 µM, first compound 3.16 µM
[24] = second compound 1 µM, first compound 10 µM
[25] = second compound 3.16 µM, first compound 0.0316 µM
[26] = second compound 3.16 µM, first compound 0.1 µM
[27] = second compound 3.16 µM, first compound 0.316 µM
[28] = second compound 3.16 µM, first compound 1 µM
[29] = second compound 3.16 µM, first compound 3.16 µM
[30] = second compound 3.16 µM, first compound 10 µM
[31] = second compound 0.0316 µM, first compound 0.000316 µM
[32] = second compound 0.0316 µM, first compound 0.001 µM
[33] = second compound 0.0316 µM, first compound 0.00316 µM
[34] = second compound 0.0316 µM, first compound 0.01 µM
[35] = second compound 0.1 µM, first compound 0.000316 µM
[36] = second compound 0.1 µM, first compound 0.001 µM
[37] = second compound 0.1 µM, first compound 0.00316 µM
[38] = second compound 0.1 µM, first compound 0.01 µM
[39] = second compound 0.316 µM, first compound 0.000316 µM
[40] = second compound 0.316 µM, first compound 0.001 µM
[41] = second compound 0.316 µM, first compound 0.00316 µM
[42] = second compound 0.316 µM, first compound 0.01 µM
[43] = second compound 1 µM, first compound 0.000316 µM
[44] = second compound 1 µM, first compound 0.001 µM
[45] = second compound 1 µM, first compound 0.00316 µM
[46] = second compound 1 µM, first compound 0.01 µM
[47] = second compound 3.16 µM, first compound 0.000316 µM
[48] = second compound 3.16 µM, first compound 0.001 µM
[49] = second compound 3.16 µM, first compound 0.00316 µM
[50] = second compound 3.16 µM, first compound 0.01 µM
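Further: spheroids exposed to agents for seven days before readout.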
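Wherever viability, T/C is given: percent of DMSO vehicle control viability.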

SMILES | pIC50 (second compound 0.0316 µM) | pIC50 (second compound 0.1 µM) | pIC50 (second compound 0.316 µM) | pIC50 (second compound 1 µM) | pIC50 (second compound 3.16 µM) | viability, T/C [1] [%] | viability, T/C [2] [%] | viability, T/C [3] [%] | viability, T/C [4] [%] | viability, T/C [7] [%] | viability, T/C [8] [%] | viability, T/C [9] [%] | viability, T/C [10] [%] | viability, T/C [13] [%] | viability, T/C [14] [%] | viability, T/C [15] [%] | viability, T/C [19] [%] | viability, T/C [20] [%] | viability, T/C [25] [%] | viability, T/C [26] [%] | further results
CC(C)NCC(C(=O)N1CCN(c2ncnc3c2C(C)CC3O)CC1)c1ccc(Cl)cc1 (stereo not given) + C=CC(=O)N1CCN(c2nc(OCC3CCCN3C)nc3c2CCN(c2cccc4cccc(C)c24)C3)CC1CC#N | < 5.00 | < 5.00 | < 5.00 | < 5.00 | > 7.50 | 104 | 105 | 99.7 | 94.7 | 101 | 98.8 | 105 | 91 | 84 | 94.2 | 92.8 | 85.6 | 101 | 2.67 | 11.2 | viability, T/C [5]: 96.3%; viability, T/C [6]: 92.7%; viability, T/C [11]: 94.5%; viability, T/C [12]: 100%; viability, T/C [16]: 84.9%; viability, T/C [17]: 77.8%; viability, T/C [18]: 85.2%; viability, T/C [21]: 95.1%; viability, T/C [22]: 90.3%; viability, T/C [23]: 93.6%; viability, T/C [24]: 88.7%; viability, T/C [27]: 14.7%; viability, T/C [28]: 12.3%; viability, T/C [29]: 4.04%; viability, T/C [30]: 0.49%
CC(C)n1nc(-c2ccc3oc(N)nc3c2)c2c(N)ncnc21 + C=CC(=O)N1CCN(c2nc(OCC3CCCN3C)nc3c2CCN(c2cccc4cccc(C)c24)C3)CC1CC#N | < 7.00 | < 7.00 | < 7.00 | < 7.00 | 9.16 | 84 | 54.7 | – | – | 85.8 | 58.4 | – | – | 68.7 | 55 | – | 68.5 | 54 | 62.4 | 31.6 | viability, T/C [31]: 97.5%; viability, T/C [32]: 90.1%; viability, T/C [33]: 80.2%; viability, T/C [34]: 82.7%; viability, T/C [35]: 95.6%; viability, T/C [36]: 88.8%; viability, T/C [37]: 89.1%; viability, T/C [38]: 86.8%; viability, T/C [39]: 95.4%; viability, T/C [40]: 96.7%; viability, T/C [41]: 85.2%; viability, T/C [42]: 81.6%; viability, T/C [43]: 106%; viability, T/C [44]: 89.9%; viability, T/C [45]: 79.1%; viability, T/C [46]: 77.4%; viability, T/C [47]: 73.4%; viability, T/C [48]: 25.1%; viability, T/C [49]: 56.7%; viability, T/C [50]: 17%
CC1(C)CCC(CN2CCN(c3ccc(C(=O)NS(=O)(=O)c4ccc(NCC5CCOCC5)c([N+](=O)[O-])c4)c(Oc4cnc5[nH]ccc5c4)c3)CC2)=C(c2ccc(Cl)cc2)C1 + C=CC(=O)N1CCN(c2nc(OCC3CCCN3C)nc3c2CCN(c2cccc4cccc(C)c24)C3)CC1CC#N | < 5.00 | 5.19 | 5.05 | 5.31 | > 7.50 | 110 | 98.6 | 102 | 90.6 | 96.9 | 89 | 87.4 | 90.2 | 102 | 99.2 | 95.6 | 83.6 | 94.5 | 18.6 | 25.2 | viability, T/C [5]: 84.5%; viability, T/C [6]: 56.7%; viability, T/C [11]: 64.8%; viability, T/C [12]: 41.2%; viability, T/C [16]: 92.8%; viability, T/C [17]: 87.1%; viability, T/C [18]: 45.7%; viability, T/C [21]: 91.7%; viability, T/C [22]: 79.3%; viability, T/C [23]: 64.3%; viability, T/C [24]: 27.8%; viability, T/C [27]: 22%; viability, T/C [28]: 9.94%; viability, T/C [29]: 0.66%; viability, T/C [30]: 0.3%
CCN1CCN(Cc2ccc(Nc3ncc(F)c(-c4cc(F)c5nc(C)n(C(C)C)c5c4)n3)nc2)CC1 + C=CC(=O)N1CCN(c2nc(OCC3CCCN3C)nc3c2CCN(c2cccc4cccc(C)c24)C3)CC1CC#N | < 6.00 | 6.12 | < 6.00 | 6.23 | 7.38 | 79.4 | 92.2 | 66.8 | 51.6 | 79.3 | 82.5 | 73.4 | 42.2 | 85 | 77.5 | 68 | 82.7 | 74.9 | 57 | 32.9 | viability, T/C [33]: 91.2%; viability, T/C [34]: 105%; viability, T/C [37]: 88.7%; viability, T/C [38]: 89.7%; viability, T/C [41]: 90.5%; viability, T/C [42]: 92.4%; viability, T/C [16]: 52.5%; viability, T/C [45]: 81.4%; viability, T/C [46]: 95.7%; viability, T/C [21]: 64.9%; viability, T/C [22]: 38%; viability, T/C [49]: 61.5%; viability, T/C [50]: 61.1%; viability, T/C [27]: 15.3%; viability, T/C [28]: 1.78%
CCNC(=O)CC1N=C(c2ccc(Cl)cc2)c2cc(OC)ccc2-n2c(C)nnc21 (stereo not given) + C=CC(=O)N1CCN(c2nc(OCC3CCCN3C)nc3c2CCN(c2cccc4cccc(C)c24)C3)CC1CC#N | < 5.00 | < 5.00 | < 5.00 | < 5.00 | 6.06 | 101 | 99.7 | 88.3 | 97 | 92.2 | 110 | 96.9 | 107 | 107 | 104 | 106 | 98.4 | 108 | 84 | 96.2 | viability, T/C [5]: 107%; viability, T/C [6]: 85.9%; viability, T/C [11]: 97.9%; viability, T/C [12]: 86.5%; viability, T/C [16]: 91.4%; viability, T/C [17]: 92.8%; viability, T/C [18]: 90.7%; viability, T/C [21]: 95.8%; viability, T/C [22]: 91%; viability, T/C [23]: 93%; viability, T/C [24]: 85%; viability, T/C [27]: 83.2%; viability, T/C [28]: 25.9%; viability, T/C [29]: 65.9%; viability, T/C [30]: 43.8%
Cn1ncnc1[C@H]1c2n[nH]c(=O)c3cc(F)cc(c23)N[C@@H]1c1ccc(F)cc1 + C=CC(=O)N1CCN(c2nc(OCC3CCCN3C)nc3c2CCN(c2cccc4cccc(C)c24)C3)CC1CC#N | < 7.00 | < 7.00 | < 7.00 | < 7.00 | 9.37 | 100 | 92.8 | – | – | 97.2 | 92.8 | – | – | 96.2 | 84.1 | – | 93.4 | 85.7 | 21 | 17.7 | viability, T/C [31]: 93.7%; viability, T/C [32]: 93.7%; viability, T/C [33]: 96.8%; viability, T/C [34]: 105%; viability, T/C [35]: 94.8%; viability, T/C [36]: 93.1%; viability, T/C [37]: 96.7%; viability, T/C [38]: 86.8%; viability, T/C [39]: 95.8%; viability, T/C [40]: 105%; viability, T/C [41]: 98.4%; viability, T/C [42]: 88.4%; viability, T/C [43]: 96.8%; viability, T/C [44]: 86.7%; viability, T/C [45]: 91.8%; viability, T/C [46]: 88.9%; viability, T/C [47]: 53.9%; viability, T/C [48]: 39.2%; viability, T/C [49]: 28.2%; viability, T/C [50]: 13.3%
